Test [1] has as its system Jurkat. Nature of the test: cells. Conditions: Homo sapiens. Format: functional.
Description: Growth inhibition of human Jurkat cells
In a further test the target is Histone deacetylase 4 (Homo sapiens, UniProt P56524). In words: Inhibition of HDAC4 (unknown origin) assessed as release of fluorogenic AMC pre-incubated for 15 mins followed by addition of trypsin and substrate measured after 60 mins microplate reader analysis.
The target of a further test is Histone deacetylase 2 (Homo sapiens, UniProt Q92769). Nature of the test: Inhibition of HDAC2 (unknown origin) assessed as release of fluorogenic AMC pre-incubated for 15 mins followed by addition of trypsin and substrate measured after 60 mins microplate reader analysis.
Sequence of Histone deacetylase 2 (Q92769 whole entry): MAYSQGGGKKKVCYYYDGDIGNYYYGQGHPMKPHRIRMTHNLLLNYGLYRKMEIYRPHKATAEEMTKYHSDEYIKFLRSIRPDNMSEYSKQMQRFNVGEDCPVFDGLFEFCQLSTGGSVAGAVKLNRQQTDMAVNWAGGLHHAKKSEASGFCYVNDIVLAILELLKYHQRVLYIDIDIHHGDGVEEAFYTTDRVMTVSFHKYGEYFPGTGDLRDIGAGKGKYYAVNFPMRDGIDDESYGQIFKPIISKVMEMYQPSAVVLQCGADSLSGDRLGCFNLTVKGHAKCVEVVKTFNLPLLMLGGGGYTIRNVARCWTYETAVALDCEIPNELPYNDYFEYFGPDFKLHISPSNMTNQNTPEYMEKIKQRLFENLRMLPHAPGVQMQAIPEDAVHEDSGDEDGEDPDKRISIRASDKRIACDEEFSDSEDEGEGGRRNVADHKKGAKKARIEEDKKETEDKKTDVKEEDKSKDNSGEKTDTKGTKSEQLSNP
The nature of test [2]: Inhibition of HDAC6 (unknown origin) assessed as release of fluorogenic AMC pre-incubated for 15 mins followed by addition of trypsin and substrate measured after 60 mins microplate reader analysis. Further details: species or system Homo sapiens.
The target in another test is Histone deacetylase 1 (Homo sapiens, UniProt Q13547). Nature of the test: Inhibition of HDAC1 (unknown origin) using Ac-Leu-Gly-Lys(Ac)-AMC as substrate pre-incubated for 30 mins followed by substrate addition and measured after 30 mins by fluorescence based analysis.
Sequence of Histone deacetylase 1 (Q13547 whole entry): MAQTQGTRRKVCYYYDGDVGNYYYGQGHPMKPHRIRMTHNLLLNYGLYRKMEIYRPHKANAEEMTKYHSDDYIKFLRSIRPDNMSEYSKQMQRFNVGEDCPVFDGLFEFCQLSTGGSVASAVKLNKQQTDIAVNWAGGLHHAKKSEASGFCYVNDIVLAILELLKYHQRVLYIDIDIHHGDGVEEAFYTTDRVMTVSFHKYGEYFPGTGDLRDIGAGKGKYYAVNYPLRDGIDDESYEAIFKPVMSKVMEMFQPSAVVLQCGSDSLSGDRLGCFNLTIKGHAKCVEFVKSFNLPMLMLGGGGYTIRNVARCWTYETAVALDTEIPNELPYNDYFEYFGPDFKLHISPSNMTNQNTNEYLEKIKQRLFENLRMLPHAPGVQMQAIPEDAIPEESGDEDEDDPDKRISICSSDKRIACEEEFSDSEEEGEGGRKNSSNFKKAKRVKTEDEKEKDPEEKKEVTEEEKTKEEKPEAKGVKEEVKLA
The target of test [3] is T1, Histone deacetylase 8 (Homo sapiens, UniProt Q9BY41).
T1 sequence (Q9BY41 whole entry): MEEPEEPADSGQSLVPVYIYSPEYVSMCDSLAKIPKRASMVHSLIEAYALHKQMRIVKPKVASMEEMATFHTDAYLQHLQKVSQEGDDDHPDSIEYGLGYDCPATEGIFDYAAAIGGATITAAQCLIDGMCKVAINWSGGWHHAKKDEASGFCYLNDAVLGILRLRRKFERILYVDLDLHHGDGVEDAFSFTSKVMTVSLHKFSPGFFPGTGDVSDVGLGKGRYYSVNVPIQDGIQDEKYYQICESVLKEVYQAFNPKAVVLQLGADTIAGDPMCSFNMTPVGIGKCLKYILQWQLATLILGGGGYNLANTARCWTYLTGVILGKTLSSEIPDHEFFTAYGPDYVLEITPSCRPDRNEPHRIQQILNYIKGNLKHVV
Nature of the test: Inhibition of human recombinant HDAC8 using AMC-K(Ac)GL as substrate by fluorescence based assay.

For test [4], the target named is T1, Histone deacetylase 8. Nature of the test: Inhibition of human recombinant HDAC8 using fluorogenic HDAC substrate class 2A preincubated for 30 mins followed by substrate addition and measured after 15 mins by fluorogenic assay.
Test [5] concerns the target T2, Histone deacetylase 8 (Homo sapiens) (UniProt Q9BY41).
T2 sequence (whole entry): T1 sequence (Q9BY41 whole entry)
Nature of the test: Inhibition of His-tagged recombinant HDAC8 (unknown origin) at 10 uM using Boc-Lys(triflouroacetyl)-AMC as fluorogenic substrate pre-incubated for 30 mins followed by substrate addition and measured after 30 mins by fluorescence based analysis relative to control. Conditions: time 60.0 min.

The target in a further test is Histone deacetylase. Nature of the test: Inhibition of HDAC (unknown origin) using Fluoro-Substrate Peptide as substrate by fluorescence assay. Format: protein assay, Homo sapiens.
The next test has as its system MOLT-4. Nature of the test: Cytotoxicity against human MOLT-4 cells assessed as reduction in cell viability. Format: functional, cell-based.
Test [6] deals with T1, Histone deacetylase 8. Nature of the test: Inhibition of HDAC8 (unknown origin) by fluorescence based assay.
Another test concerns U-937. In words: Cytotoxicity against human U-937 cells assessed as reduction in cell viability. The format is functional, cell-based.
For test [7], the system named is Jurkat E6.1. Nature of the test: Cytotoxicity against human Jurkat E6.1 cells assessed as reduction in cell viability. Format: functional, cell-based.
For test [8], the system named is Jurkat. Nature of the test: Cytotoxicity against human Jurkat cells assessed as reduction in cell viability incubated for 24 hrs by CellTiter-Glo luminescent cell viability assay. The format is functional.
In test [9] the test system is Jurkat E6.1. Nature of the test: Cytotoxicity against human Jurkat E6.1 cells assessed as reduction in cell viability incubated for 72 hrs by MTT assay. The format is functional, cell-based. As to conditions: Jurkat E6.1, 72 h.

Sequence of Histone deacetylase 4 (P56524 whole entry): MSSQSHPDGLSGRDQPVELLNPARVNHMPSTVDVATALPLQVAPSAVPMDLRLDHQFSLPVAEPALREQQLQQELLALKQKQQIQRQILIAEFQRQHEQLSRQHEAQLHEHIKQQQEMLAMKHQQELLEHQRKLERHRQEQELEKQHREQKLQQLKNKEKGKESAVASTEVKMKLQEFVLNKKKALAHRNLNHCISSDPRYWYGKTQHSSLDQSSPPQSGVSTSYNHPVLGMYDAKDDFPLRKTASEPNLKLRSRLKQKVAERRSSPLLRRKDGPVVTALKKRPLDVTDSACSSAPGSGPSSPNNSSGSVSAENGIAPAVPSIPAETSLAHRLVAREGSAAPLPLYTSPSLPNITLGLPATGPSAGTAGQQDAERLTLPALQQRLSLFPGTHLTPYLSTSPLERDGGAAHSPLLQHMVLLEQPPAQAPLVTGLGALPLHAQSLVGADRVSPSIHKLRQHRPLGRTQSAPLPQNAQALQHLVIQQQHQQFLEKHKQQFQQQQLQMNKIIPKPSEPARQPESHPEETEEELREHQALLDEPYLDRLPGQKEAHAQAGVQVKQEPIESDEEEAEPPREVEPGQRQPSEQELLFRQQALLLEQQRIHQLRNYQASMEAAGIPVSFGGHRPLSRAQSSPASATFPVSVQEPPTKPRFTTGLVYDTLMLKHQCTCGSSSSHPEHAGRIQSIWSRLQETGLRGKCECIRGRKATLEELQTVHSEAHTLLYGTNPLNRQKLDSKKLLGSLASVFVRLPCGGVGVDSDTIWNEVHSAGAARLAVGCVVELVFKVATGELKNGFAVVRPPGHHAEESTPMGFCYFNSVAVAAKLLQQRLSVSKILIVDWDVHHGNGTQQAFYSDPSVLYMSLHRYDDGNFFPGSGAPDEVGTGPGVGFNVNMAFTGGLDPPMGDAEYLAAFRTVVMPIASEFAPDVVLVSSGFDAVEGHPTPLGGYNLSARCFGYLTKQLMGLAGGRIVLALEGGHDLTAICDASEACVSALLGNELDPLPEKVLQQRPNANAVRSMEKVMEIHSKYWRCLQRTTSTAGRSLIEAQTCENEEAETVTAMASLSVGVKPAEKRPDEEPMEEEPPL

Regarding `O=C(NO)c1cccc(-n2cc(CSc3ccccc3)nn2)c1`, growth with Jurkat [1] was halved (GI50) at 24 µM. In addition, the IC50 on Histone deacetylase 4 is over 100 µM; at Histone deacetylase 2 it was over 100 µM; in test [2], 2.2 µM; at Histone deacetylase 1, over 100 µM.
Regarding `O=C(NO)c1cccc(-c2nc(CSc3ccccc3)no2)c1`, at Histone deacetylase 8 [3], the half-maximal inhibitory concentration (IC50) worked out at 0.12 µM.
As for `O=C1CN[C@H](Cc2ccccc2)C(=O)N1`, the 50% inhibitory concentration (IC50) on Histone deacetylase 8 [4] stood at 0.0215 µM.
For `CC(C)C[C@H](NC(=O)[C@@H](O)[C@H](N)Cc1ccccc1)C(=O)NCCOCCOCC(=O)Nc1cccc(C(=O)NO)c1`, the inhibition in [5] was 71%.
With `O=C(NO)c1ccc(-c2cccc3ccccc23)cc1`, the IC50 in [2] is 55 µM; against Histone deacetylase 1 it was over 100 µM.
Consider `O=C(O)CC[C@H](NC(=O)Cc1ccc(Br)cc1)C(=O)NCc1ccccc1Cl`, for which the IC50 on Histone deacetylase was over 10 µM; with MOLT-4, under 35 µM; against Histone deacetylase 8 [6] it was at most 10 µM; with U-937, over 35 µM; in the test with Jurkat E6.1 [7] it was over 35 µM.
Regarding `CC(C)C[C@H](NC(=O)[C@@H](O)[C@H](N)Cc1ccccc1)C(=O)NCCOCCOCCNC(=O)c1cccc(C(=O)NO)c1`, the inhibition in test [5] worked out at 64%.
Take `O=C(/C=C/C#Cc1cccc(NS(=O)(=O)c2ccccc2)c1)NO`: in the test on Jurkat [8], the CC50 turned out to be 5.9 µM.
For the molecule `O=C(CC[C@H](NC(=O)Cc1ccc(Cl)cc1Cl)C(=O)Nc1ccccc1)NO`, the IC50 with Jurkat E6.1 [9] is under 50 µM.
`COc1ccc(Cn2ccc3ccc(C(=O)NO)cc32)cc1` showed a GI50 in the test with Jurkat [1] of 2.4 µM. Further, the IC50 in test [2] is 2.9 µM.
Take `CCCCNC(=O)[C@H](CCC(=O)NO)NC(=O)Cc1ccc(Cl)cc1Cl`: the IC50 with Jurkat E6.1 [9] was under 50 µM.
Same read-out and setting: as for `CCCCCNC(=O)[C@H](CCC(=O)NO)NC(=O)Cc1ccc(Cl)cc1`, the figure is under 50 µM; as for `CCCCCNC(=O)[C@H](CCC(=O)NO)NC(=O)Cc1ccccc1Br`, over 50 µM.
For the molecule `CCCCCCNC(=O)[C@H](CCC(=O)O)NC(=O)Cc1ccc(Br)cc1`, the IC50 at Histone deacetylase was over 10 µM; in the test on MOLT-4, at most 35 µM; at Histone deacetylase 8 [6] it was at most 10 µM; with U-937, over 35 µM; in the test on Jurkat E6.1 [7], at most 35 µM.
Regarding `CCCCCNC(=O)[C@H](CCC(=O)NO)NC(=O)Cc1ccccc1`, the IC50 with Jurkat E6.1 [9] is under 50 µM.
Take `O=C(NO)c1cccc(-c2csc(CSc3ccccc3)n2)c1`: in the test on Jurkat [1], the 50% growth inhibitory concentration (GI50) was 2 µM. In other words, the single-digit micromolar range.
With `CCCCCCNC(=O)[C@H](CCC(=O)O)NC(=O)Cc1ccc(Cl)cc1`, the IC50 against Histone deacetylase is over 10 µM; with MOLT-4 it was at most 35 µM; against Histone deacetylase 8 [6], at most 10 µM; in the test on U-937, at most 35 µM; in the test with Jurkat E6.1 [7], at most 35 µM.
For `O=C(O)CC[C@H](NC(=O)Cc1ccc(Br)cc1)C(=O)NCc1ccccc1`, the IC50 against Histone deacetylase was over 10 µM; with MOLT-4, at most 35 µM; on Histone deacetylase 8 [6] it was at most 10 µM; in the test on U-937, over 35 µM; with Jurkat E6.1 [7] it was at most 35 µM.
`O=C1CN[C@H](Cc2cc3ccccc3[nH]2)C(=O)N1`: the IC50 at Histone deacetylase 8 [4] came to 0.0511 µM.
With `CCC(=O)CCCCC[C@@H]1NC(=O)[C@H]2CCCCN2C(=O)[C@H]([C@@H](C)CC)NC(=O)[C@H](Cc2cn(OC)c3ccccc23)NC1=O` [APICIDIN], the CC50 in the test with Jurkat [8] was found to be 10 µM.
For `O=C1CN[C@@H](Cc2ccccc2)C(=O)N1`, the 50% inhibitory concentration (IC50) at Histone deacetylase 8 [4] worked out at 0.0674 µM.
Take `CCCCCCNC(=O)[C@H](CCC(=O)O)NC(=O)Cc1ccc(-c2ccccc2)cc1`: the IC50 against Histone deacetylase and against Histone deacetylase 8 [6] was over 10 µM in each case.

For the origin of these results see ChEMBL document CHEMBL5625174, “Are inhibitors of histone deacetylase 8 (HDAC8) effective in hematological cancers especially acute myeloid leukemia (AML) and acute lymphoblastic leukemia (ALL)?” (Eur J Med Chem, 2023).
